Data as given in US20220387408A1, “USE OF MAST CELL STABILIZER FOR THE TREATMENT OF HEART FAILURE WITH PRESERVED EJECTION FRACTION” (INSERM (INSTITUT NATIONAL DE LA SANTÉ ET DE LA RECHERCHE …, priority 2019, published 2022).
“Also recorded” adds a separate entry of the source.

Columns and labels:
Assay type in all cases: in vivo
Lepr^db/db female mice [1] = experiment: Heart weight in Lepr^db/db mice; conditions: 50 mg/kg/day cromolyn sodium for 28 days; data not shown
Description: To prevent mast cell degranulation, mice were treated with 50 mg/kg/day cromolyn sodium (Abcam) via intra-peritoneal injections for 28 days. Untreated mice received 0.9% NaCl daily intra-peritoneal injections.

Lepr^db/db female mice [2] = experiment: Immuno-histological assessment of the heart (capillaries, albumin, CD45+ leucocytes, mast cells, cardiomyocyte size) in Lepr^db/db mice
Description: Lepr^db mice (BKS.Cg-Dock7m/+ Lepr^db/+J) were obtained from Charles River laboratories and bred together to obtain Lepr^db/db and control Lepr^db/+ mice. To prevent mast cell degranulation, mice were treated with 50 mg/kg/day cromolyn sodium (Abcam) via intra-peritoneal injections for 28 days. Untreated mice received 0.9% NaCl daily intra-peritoneal injections. […] Prior to staining, heart were stopped in diastole using KCl, perfused and then fixed in 10% formalin for 4 hours, paraffin embedded and cut into 7 μm thick sections. Alternatively, heart were fresh frozen in OCT, then cut into 7 μm thick sections. ECs were identified using rat anti-CD31 antibodies (Histonova, cat #DIA-310). Albumin was stained using sheep anti-albumin antibodies (Abcam, Cat #ab8940). Pan-leucocytes were identified using rat anti-mouse CD45 antibodies (BD Pharmingen Inc, Cat #550539). For immunofluorescence analyzes, primary antibodies were resolved with Alexa Fluor®-conjugated secondary polyclonal antibodies (Invitrogen, Cat #[NT]-10037) and nuclei were counterstained with DAPI (1/5000). Negative controls using secondary antibodies only were done to check for antibody specificity. Capillary density (CD31+ vessels) was quantified in 4 pictures taken under ×260 magnification in areas where cardiomyocytes were oriented transversally. To assess the mean capillary diameter, the diameter of 10 capillary randomly chosen in each picture was measured via Image J. Inflammatory cell density (CD45+) was quantified in 8 pictures randomly taken under ×260 magnification. All pictures and quantifications (done using ImageJ/Fiji v2.0.0-rc-59 software (National Institute of Health, USA)) were performed by a blinded investigator. More precisely, all samples were assigned a random number prior to animal sacrifice, data collection and analysis. At the end of the experiment, the genotype/treatment for each animal was unveiled to allow data comparison and experimental conclusion.

Lepr^db/db female mice [3] = experiment: LV end diastolic pressure measurement by pressure catheter in Lepr^db/db mice; conditions: 2 month old Lepr^db/db female mice
Description: Lepr^db mice (BKS.Cg-Dock7m/+ Lepr^db/+J) were obtained from Charles River laboratories and bred together to obtain Lepr^db/db and control Lepr^db/+ mice. To prevent mast cell degranulation, mice were treated with 50 mg/kg/day cromolyn sodium (Abcam) via intra-peritoneal injections for 28 days. Untreated mice received 0.9% NaCl daily intra-peritoneal injections. […] LV diastolic pressure measurement was assessed using pressure—volume conductance catheter technique. Briefly, mice will be anesthetized with Isoflurane. A Scisense pressure catheter (Transonic) will be inserted into the LV through the common carotid artery. Pressure will be recorded using […] LabChart software. End diastolic pressure, dP/dt minimum and maximum, Tau and heart rate were automatically calculated by a curve fit through end-systolic and end-diastolic points on the pressure plot.

Lepr^db/db female mice [4] = experiment: Echocardiography (ejection fraction, LV wall thickness) in Lepr^db/db mice; conditions: data not shown
Excerpt: Lepr^db mice (BKS.Cg-Dock7m/+ Lepr^db/+J) were obtained from Charles River laboratories and bred together to obtain Lepr^db/db and control Lepr^db/+ mice.
[…] Untreated mice received 0.9% NaCl daily intra-peritoneal injections.
Left-ventricular ejection fraction and LV dimension will be measured on a high-resolution echocardiographic system equipped with a 30-MHz mechanical transducer (VEVO 2100, VisualSonics Inc.) as previously described 13,14. Mice were anchored to a warming platform in a supine position, limbs were taped to the echocardiograph electrodes, and chests were shaved and cleaned with a chemical hair remover to minimize ultrasound attenuation. UNI′GEL ECG (Asept Inmed), from which all air bubbles had been expelled, was applied to the thorax to optimize the visibility of the cardiac chambers. Ejection fractions were evaluated by planimetry as recommended (Schiller et al. 1989). Two-dimensional, parasternal long-axis and short-axis views were acquired, and the endocardial area of each frame was calculated by tracing the endocardial limits in the long-axis view, then the minimal and maximal areas were used to determine the left-ventricular end-systolic (ESV) and end-diastolic (EDV) volumes, respectively. The system software uses a formula based on a cylindrical-hemiellipsoid model (volume=8·area^2/3π/length) 15. The left-ventricular ejection fraction was derived from the following formula: (EDV−ESV)/EDV*100. The cardiac wall thickness (Left ventricular posterior wall (LVPW), Inter-ventricular septum (IVS) and left ventricular internal diameter (LVID) were calculated by tracing wall limits in both the long and short axis views.

[5] = 50 mg/kg/day cromolyn sodium for 28 days

For `O=C(O)c1cc(=O)c2c(OCC(O)COc3cccc4oc(C(=O)O)cc(=O)c34)cccc2o1` [cromolyn sodium], the Heart weight (Lepr^db/db female mice [1]) was “did neither modify”, the “Cardiac microvessel density (CD31+ vessels/mm^2)” value (Lepr^db/db female mice [2]; 50 mg/kg/day cromolyn sodium for 28 days vs vehicle, FIG. 2A) was “did not modify” and the “Mean cardiac capillary diameter” value (Lepr^db/db female mice [2]; 50 mg/kg/day cromolyn sodium for 28 days vs vehicle, FIG. 2B) was “did reduce”. The “Capillary permeability (albumin extravasation, albumin+ surface area)” value (Lepr^db/db female mice [2]; 50 mg/kg/day cromolyn sodium for 28 days vs vehicle, FIG. 2C) was “decreased”, the “CD45+ leucocyte recruitment (CD45+ cells/mm^2)” value (Lepr^db/db female mice [2]; 50 mg/kg/day cromolyn sodium for 28 days vs vehicle, FIG. 2D) was “decreases; also recorded: significantly decreased” and the “Percentage of degranulating mast cells in the heart” value (Lepr^db/db female mice [2]; 50 mg/kg/day cromolyn sodium for 28 days vs vehicle, data not shown) was “did decrease”. For the same molecule, the Mean cardiomyocyte size (Lepr^db/db female mice [2]; 50 mg/kg/day cromolyn sodium for 28 days, data not shown) was “did neither modify”, the “End diastolic pressure (EDP)” value (Lepr^db/db female mice [3]; 50 mg/kg/day cromolyn sodium intra-peritoneal for 28 days vs vehicle, FIG. 1A) was “significantly decreased; also recorded: prevents increased EDP” and the “End diastolic pressure (EDP)” value (Lepr^db/db female mice [3]; 50 mg/kg/day cromolyn sodium intra-peritoneal for 28 days vs vehicle, FIG. 1A, listed as Cromolyn Sodium) was “prevents the occurrence of diastolic dysfunction”. For the same molecule, the “End diastolic pressure (EDP)” value (Lepr^db/db female mice [3]; 50 mg/kg/day cromolyn sodium intra-peritoneal for 28 days vs vehicle, FIG. 1A, listed as Cromolyn sodium) was “significantly reduced”, the Ejection fraction (Lepr^db/db female mice [4]; [5]) was “not modulated” and the “LV posterior wall thickness” value (Lepr^db/db female mice [4]; [5]) was “did neither modify”.
In the case of `O=C(O)COCCN1CCN(C(c2ccccc2)c2ccc(Cl)cc2)CC1` (centres unmarked) [cetirizine], the “End diastolic pressure (EDP)” value (Lepr^db/db female mice [3]; 4 mg/kg/day cetirizine orally (drinking water) for 28 days vs vehicle, FIG. 1B) is reported as “significantly decreased” and the Ejection fraction (Lepr^db/db female mice [4]; 4 mg/kg/day cetirizine orally for 28 days) is reported as “not modulated”.
